Reference: PMC10716264 (Frontiers in Medicine, 2023)
Read-outs that look alike come from different tables or passages of the source.

Columns and labels:
[1] = system: SARS-CoV-2 (2019-nCoV-WIV04); experiment: microbe, parasite or virus in culture; type: cell-based; settings: read-out: EC50 against SARS-CoV-2 virus
SARS-CoV-2 3CLpro = SARS-CoV-2 3CLpro (Severe acute respiratory syndrome coronavirus 2, UniProt P0DTD1); experiment: biochemical
[2] = system: influenza A/California/07/09 (H1N1) strain; experiment: microbe, parasite or virus in culture; type: cell-based; settings: read-out: EC50 (effective 50% concentration), MDCK cells
[3] = parameters: method as in earlier work; settings: co-administration with ritonavir; cited from earlier work
[4] = target: SARS-CoV-2 RdRp complex (nsp12-nsp7-nsp8) (Severe acute respiratory syndrome coronavirus 2, UniProt P0DTD1); type: biochemical
COVID-19 = system: COVID-19; parameters: method as in PMID 32568613; settings: unvaccinated symptomatic adults, Nirmatrelvir-based therapy; cited from earlier work
[5] = Severe acute respiratory syndrome coronavirus 2, Vero C1008, 24 h

2,4-bis-O-galloyl-1,3,6-tri-O-galloyl-β-D-glucose [R-7]
EC50 [1]: 17.5 µM
IC50 (SARS-CoV-2 3CLpro): 9.84 µM

NC(=O)c1nc(F)c[nH]c1=O [Favipiravir]
EC50 [2]: 24 µM

Cc1cccc(C)c1OCC(=O)N[C@@H](Cc1ccccc1)[C@@H](O)C[C@H](Cc1ccccc1)NC(=O)[C@H](C(C)C)N1CCCNC1=O [Lopinavir]
increase of area under the plasma concentration-time curve [3]: more than 100 times

O=c1c(O)c(-c2cc(O)c(O)c(O)c2)oc2cc(O)cc(O)c12 [Myricetin]
formation of the RdRp-RNA complex ([4]; 250 μM): completely blocked
inhibition of primer elongation ([4]; gel assay, compared with Rutan): showed inhibitory activity in higher concentrations

CC(C)(C)[C@H](NC(=O)C(F)(F)F)C(=O)N1C[C@H]2[C@@H]([C@H]1C(=O)N[C@H](C#N)C[C@@H]1CCNC1=O)C2(C)C [Nirmatrelvir]
reduction of the risk of severe complications following COVID-19 infection (COVID-19): 89%

O=C(OC[C@H]1O[C@@H](OC(=O)c2cc(O)c(O)c(O)c2)[C@H](OC(=O)c2cc(O)c(O)c(O)c2)[C@@H](OC(=O)c2cc(O)c(O)c(O)c2)[C@@H]1OC(=O)c1cc(O)c(O)c(O)c1)c1cc(O)c(O)c(O)c1 [R-5, 1,2,3,4,6-penta-O-galloyl-β-D-glucose]
EC50 [1, 5]: 7.49 µM

O=C(OC[C@H]1O[C@@H](OC(=O)c2cc(O)c(O)c(O)c2)[C@H](OC(=O)c2cc(O)c(O)c(O)c2)[C@@H](OC(=O)c2cc(O)c(O)c(OC(=O)c3cc(O)c(O)c(O)c3)c2)[C@@H]1OC(=O)c1cc(O)c(O)c(O)c1)c1cc(O)c(O)c(O)c1 [R-6, 3-bis-O-galloyl-1,2,4,6-tetra-O-galloyl-β-D-glucose]
EC50 ([1]; Severe acute respiratory syndrome coronavirus 2, Vero C1008, Vero E6 cells, MOI 0.01, 24 h post-infection, viral copies by qRT-PCR): 5.95 µM
IC50 (SARS-CoV-2 3CLpro): 9.92 µM

O=C(OC[C@H]1O[C@@H](OC(=O)c2cc(O)c(O)c(O)c2)[C@H](OC(=O)c2cc(O)c(O)c(OC(=O)c3cc(O)c(O)c(O)c3)c2)[C@@H](OC(=O)c2cc(O)c(O)c(OC(=O)c3cc(O)c(O)c(O)c3)c2)[C@@H]1OC(=O)c1cc(O)c(O)c(OC(=O)c2cc(O)c(O)c(O)c2)c1)c1cc(O)c(O)c(O)c1 [R-8, 2,3,4-bis-O-galloyl-1,6-di-O-galloyl-β-D-glucose]
IC50 (SARS-CoV-2 3CLpro; Rutan and components (Figure 4)): 1.34 µM

CCC(CC)COC(=O)[C@H](C)N[P@](=O)(OC[C@H]1O[C@@](C#N)(c2ccc3c(N)ncnn23)[C@H](O)[C@@H]1O)Oc1ccccc1 [Remdesivir]
EC50 [1, 5]: 2 µM
